Assay results: patent publication US9802927B2, “Oxadiazine compounds and methods of use thereof” (Denali Therapeutics, Inc., priority 2015, dated 2017)

Test system: Aβ42
Assay: In vitro cell screening assay in H4 cells expressing human APP751: Aβ42 by sandwich ELISA
Assay type: cell-based
Details: compounds 0.003-10 μM, incubated overnight (16-18 h), sandwich ELISA of supernatant
How it was run: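 Secreted Aβ42 measured by sandwich ELISA, C-terminal-specific capture and 4G8-HRP detection, TMB read at 450 nm, from supernatants of APP751-expressing H4 cells exposed overnight (16-18 h) to 0.003-10 μM compound in Pro293 medium, 0.33% DMSO. Data scaled between DMSO and DAPT controls; EC50 from variable-slope nonlinear regression.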

EC50 [nM]	EC50 (Homo sapiens) [nM]	SMILES
> 3000		COc1nc(C2=NOCC(c3cccc(S(C)(=O)=O)c3)N2)ccc1-n1cnc(C)c1 (single isomer, unassigned; (-)) [Example 214A, (−)-3-(6-methoxy-5-(4-methyl-1H-imidazol-1-yl)pyridin-2-yl)-5-(3-(methylsulfonyl)phenyl)-5,6-dihydro-4H-1,2,4-oxadiazine]
17.8		COc1nc(C2=NOCC(c3cc4cc(Cl)ccc4o3)N2)ccc1-n1cnc(C)c1 (single isomer, unassigned; (+)) [Example 57B, (+)-5-(5-chlorobenzofuran-2-yl)-3-(6-methoxy-5-(4-methyl-1H-imidazol-1-yl)pyridin-2-yl)-5,6-dihydro-4H-1,2,4-oxadiazine]
1010		COc1nc(C2=NOCC(c3ccc(C)c(Cl)c3)N2)ccc1-n1cnc(C)c1 (single isomer, unassigned; (-)) [Example 218A, (−)-5-(3-chloro-4-methylphenyl)-3-(6-methoxy-5-(4-methyl-1H-imidazol-1-yl)pyridin-2-yl)-5,6-dihydro-4H-1,2,4-oxadiazine]
> 3000		COc1nc(C2=NOCC(c3ccc(Cl)c(F)c3)N2)ccc1-n1cnc(C)c1 (single isomer, unassigned; (-)) [Example 106A, (−)-5-(4-chloro-3-fluorophenyl)-3-(6-methoxy-5-(4-methyl-1H-imidazol-1-yl)pyridin-2-yl)-5,6-dihydro-4H-1,2,4-oxadiazine]
425		COc1nc(C2=NOCC(c3cc4cc(C5CC5)ccc4o3)N2)ccc1-n1cnc(C)c1 (single isomer, unassigned; (-)) [Example 234A, (−)-5-(5-cyclopropylbenzofuran-2-yl)-3-(6-methoxy-5-(4-methyl-1H-imidazol-1-yl)pyridin-2-yl)-5,6-dihydro-4H-1,2,4-oxadiazine]
> 3000		COc1ccc(C2CON=C(c3ccc(-n4cnc(C)c4)c(OC)n3)N2)cc1 (single isomer, unassigned; (-)) [Example 54A, (−)-3-(6-methoxy-5-(4-methyl-1H-imidazol-1-yl)pyridin-2-yl)-5-(4-methoxyphenyl)-5,6-dihydro-4H-1,2,4-oxadiazine]
2280		COc1nc(C2=NOCC(c3cc4cc(Cl)ccc4o3)N2)ccc1-n1cnc(C)c1 (single isomer, unassigned; (-)) [Example 57A, (−)-5-(5-chlorobenzofuran-2-yl)-3-(6-methoxy-5-(4-methyl-1H-imidazol-1-yl)pyridin-2-yl)-5,6-dihydro-4H-1,2,4-oxadiazine]
143		COc1nc(C2=NOCC(c3ccccc3Cl)N2)ccc1-n1cnc(C)c1 (single isomer, unassigned) [Example 136A, 5-(2-chlorophenyl)-3-(6-methoxy-5-(4-methyl-1H-imidazol-1-yl)pyridin-2-yl)-5,6-dihydro-4H-1,2,4-oxadiazine]
12.2		COc1nc(C2=NOCC(c3cc4cccc(Cl)c4o3)N2)ccc1-n1cnc(C)c1 (single isomer, unassigned; (+)) [Example 64B, (+)-5-(7-chlorobenzofuran-2-yl)-3-(6-methoxy-5-(4-methyl-1H-imidazol-1-yl)pyridin-2-yl)-5,6-dihydro-4H-1,2,4-oxadiazine]

More lines, now with the values behind:

SMILES	EC50 [nM]	EC50 (Homo sapiens) [nM]
COc1nc(C2=NOCC(c3ccc(C(C)(C)C)cc3)N2)ccc1-n1cnc(C)c1 (single isomer, unassigned; (+)) [Example 235B, (+)-5-(4-(tert-butyl)phenyl)-3-(6-methoxy-5-(4-methyl-1H-imidazol-1-yl)pyridin-2-yl)-5,6-dihydro-4H-1,2,4-oxadiazine]	9.5	
COc1nc(C2=NOCC(c3cn(C)c4cc(F)cc(F)c34)N2)ccc1-n1cnc(C)c1 (single isomer, unassigned; (+)) [Example 226A, (+)-5-(4,6-difluoro-1-methyl-1H-indol-3-yl)-3-(6-methoxy-5-(4-methyl-1H-imidazol-1-yl)pyridin-2-yl)-5,6-dihydro-4H-1,2,4-oxadiazine]	9.4	
COc1nc(C2=NOCC(c3cn(C)c4ncc(C(F)(F)F)cc34)N2)ccc1-n1cnc(C)c1 (single isomer, unassigned; (-)) [Example 206A, (−)-3-(6-methoxy-5-(4-methyl-1H-imidazol-1-yl)pyridin-2-yl)-5-(1-methyl-5-(trifluoromethyl)-1H-pyrrolo [2,3-b]pyridin-3-yl)-5,6-dihydro-4H-1,2,4-oxadiazine]	800	
COc1nc(C2=NOCC(c3cn(C)c4cc(Cl)ccc34)N2)ccc1-n1cnc(C)c1 (single isomer, unassigned; (-)) [Example 194B, (−)-5-(6-chloro-1-methyl-1H-indol-3-yl)-3-(6-methoxy-5-(4-methyl-1H-imidazol-1-yl)pyridin-2-yl)-5,6-dihydro-4H-1,2,4-oxadiazine]	147	
COc1nc(C2=NOCC(c3cn(C)c4cccc(C(F)(F)F)c34)N2)ccc1-n1cnc(C)c1 (single isomer, unassigned; (-)) [Example 230B, (−)-3-(6-methoxy-5-(4-methyl-1H-imidazol-1-yl)pyridin-2-yl)-5-(1-methyl-4-(trifluoromethyl)-1H-indol-3-yl)-5,6-dihydro-4H-1,2,4-oxadiazine]	25.2	
COc1nc(C2=NOCC(c3cn(C)c4ncc(C(F)(F)F)cc34)N2)ccc1-n1cnc(C)c1 (single isomer, unassigned; (+)) [Example 206B, (+)-3-(6-methoxy-5-(4-methyl-1H-imidazol-1-yl)pyridin-2-yl)-5-(1-methyl-5-(trifluoromethyl)-1H-pyrrolo [2,3-b]pyridin-3-yl)-5,6-dihydro-4H-1,2,4-oxadiazine]	5	
COc1nc(C2=NOCC(c3ccc(Cl)cc3C)N2C)ccc1-n1cnc(C)c1 (single isomer, unassigned) [Example 27A, 5-(4-chloro-2-methylphenyl)-3-(6-methoxy-5-(4-methyl-1H-imidazol-1-yl)pyridin-2-yl)-4-methyl-5,6-dihydro-4H-1,2,4-oxadiazine]	2180	
COc1nc(C2=NOCC(C3CCOCC3)N2)ccc1-n1cnc(C)c1 (single isomer, unassigned; (-)) [Example 143A, (−)-3-(6-methoxy-5-(4-methyl-1H-imidazol-1-yl)pyridin-2-yl)-5-(tetrahydro-2H-pyran-4-yl)-5,6-dihydro-4H-1,2,4-oxadiazine]		> 3000
COc1nc(C2=NOCC(C3CC3)N2)ccc1-n1cnc(C)c1 (single isomer, unassigned) [Example 134A, 5-cyclopropyl-3-(6-methoxy-5-(4-methyl-1H-imidazol-1-yl)pyridin-2-yl)-5,6-dihydro-4H-1,2,4-oxadiazine]	> 3000	
COc1nc(C2=NOCC(c3sc4ccccc4c3C)N2)ccc1-n1cnc(C)c1 (single isomer, unassigned; (-)) [Example 66A, (−)-3-(6-methoxy-5-(4-methyl-1H-imidazol-1-yl)pyridin-2-yl)-5-(3-methylbenzo [b]thiophen-2-yl)-5,6-dihydro-4H-1,2,4-oxadiazine]	651	
COc1nc(C2=NOCC(c3oc(C)nc3C)N2)ccc1-n1cnc(C)c1 (single isomer, unassigned; (-)) [Example 161A, (−)-5-(2,4-dimethyloxazol-5-yl)-3-(6-methoxy-5-(4-methyl-1H-imidazol-1-yl)pyridin-2-yl)-5,6-dihydro-4H-1,2,4-oxadiazine]		> 3000
COc1nc(C2=NOCC(c3cc(F)cc(F)c3)N2)ccc1-n1cnc(C)c1 (single isomer, unassigned; (+)) [Example 81B, (+)-5-(3,5-difluorophenyl)-3-(6-methoxy-5-(4-methyl-1H-imidazol-1-yl)pyridin-2-yl)-5,6-dihydro-4H-1,2,4-oxadiazine]	43.1	
COc1nc(C2=NOCC(c3cn(C)c4cc(F)c(Cl)cc34)N2)ccc1-n1cnc(C)c1 (single isomer, unassigned; (-)) [Example 216A, (−)-5-(5-chloro-6-fluoro-1-methyl-1H-indol-3-yl)-3-(6-methoxy-5-(4-methyl-1H-imidazol-1-yl)pyridin-2-yl)-5,6-dihydro-4H-1,2,4-oxadiazine]	89.5	
COc1nc(C2=NOCC(c3cc(Cl)cc(Cl)c3)N2)ccc1-n1cnc(C)c1 (single isomer, unassigned; (-)) [Example 118A, (−)-5-(3,5-dichlorophenyl)-3-(6-methoxy-5-(4-methyl-1H-imidazol-1-yl)pyridin-2-yl)-5,6-dihydro-4H-1,2,4-oxadiazine]	1510	
COc1nc(C2=NOCC(c3ccc(C(F)(F)F)c(Cl)c3)N2)ccc1-n1cnc(C)c1 (single isomer, unassigned; (-)) [Example 262A, (−)-5-(3-chloro-4-(trifluoromethyl)phenyl)-3-(6-methoxy-5-(4-methyl-1H-imidazol-1-yl)pyridin-2-yl)-5,6-dihydro-4H-1,2,4-oxadiazine]	> 3000	
COc1nc(C2=NOCC(c3cccc(C4CC4)c3)N2)ccc1-n1cnc(C)c1 (single isomer, unassigned; (-)) [Example 127A, (−)-5-(3-cyclopropylphenyl)-3-(6-methoxy-5-(4-methyl-1H-imidazol-1-yl)pyridin-2-yl)-5,6-dihydro-4H-1,2,4-oxadiazine]	1030	
COc1nc(C2=NOCC(c3cn(C)c4ccc(C#N)cc34)N2)ccc1-n1cnc(C)c1 (single isomer, unassigned; (-)) [Example 245A, (−)-3-(3-(6-methoxy-5-(4-methyl-1H-imidazol-1-yl)pyridin-2-yl)-5,6-dihydro-4H-1,2,4-oxadiazin-5-yl)-1-methyl-1H-indole-5-carbonitrile]	554	
COc1nc(C2=NOCC(C3CCS(=O)(=O)CC3)N2)ccc1-n1cnc(C)c1 (single isomer, unassigned; (+)) [Example 177A, (+)-4-(3-(6-methoxy-5-(4-methyl-1H-imidazol-1-yl)pyridin-2-yl)-5,6-dihydro-4H-1,2,4-oxadiazin-5-yl) tetrahydro-2H-thiopyran 1,1-dioxide]		> 3000
